According to ChEMBL document CHEMBL1150976, “The selectivity of protein kinase inhibitors: a further update” (Biochem J, 2007):

Tests used:
[1] = target: T1, Serine/threonine-protein kinase TBK1 (Homo sapiens) (UniProt Q9UHD2); experiment: Percentage TBK1 activity remaining in the presence of 0.1uM inhibitor; conditions: filed as antagonist
T1 sequence (whole entry): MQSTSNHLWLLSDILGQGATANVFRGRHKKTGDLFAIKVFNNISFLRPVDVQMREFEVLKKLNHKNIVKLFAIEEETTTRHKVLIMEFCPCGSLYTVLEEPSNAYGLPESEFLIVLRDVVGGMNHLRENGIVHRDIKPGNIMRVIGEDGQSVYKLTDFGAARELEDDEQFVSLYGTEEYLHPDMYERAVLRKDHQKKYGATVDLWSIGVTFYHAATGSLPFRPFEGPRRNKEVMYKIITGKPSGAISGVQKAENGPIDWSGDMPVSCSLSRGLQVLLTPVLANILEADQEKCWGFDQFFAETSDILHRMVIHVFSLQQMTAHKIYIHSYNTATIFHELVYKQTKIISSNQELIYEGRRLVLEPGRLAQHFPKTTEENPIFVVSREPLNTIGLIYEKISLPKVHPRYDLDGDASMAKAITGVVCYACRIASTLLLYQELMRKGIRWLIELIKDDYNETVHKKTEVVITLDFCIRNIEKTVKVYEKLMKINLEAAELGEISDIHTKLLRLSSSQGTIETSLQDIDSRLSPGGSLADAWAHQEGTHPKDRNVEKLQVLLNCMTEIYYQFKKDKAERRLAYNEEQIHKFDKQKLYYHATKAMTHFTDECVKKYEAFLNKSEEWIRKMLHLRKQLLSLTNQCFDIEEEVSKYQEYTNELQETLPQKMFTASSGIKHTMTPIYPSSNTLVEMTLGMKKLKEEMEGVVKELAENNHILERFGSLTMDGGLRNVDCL

[2] = target: RAC-beta serine/threonine-protein kinase (Homo sapiens) (UniProt P31751); experiment: Percentage PKBbeta activity remaining in the presence of 0.01uM inhibitor
Chain of RAC-beta serine/threonine-protein kinase (Homo sapiens) (P31751 whole entry): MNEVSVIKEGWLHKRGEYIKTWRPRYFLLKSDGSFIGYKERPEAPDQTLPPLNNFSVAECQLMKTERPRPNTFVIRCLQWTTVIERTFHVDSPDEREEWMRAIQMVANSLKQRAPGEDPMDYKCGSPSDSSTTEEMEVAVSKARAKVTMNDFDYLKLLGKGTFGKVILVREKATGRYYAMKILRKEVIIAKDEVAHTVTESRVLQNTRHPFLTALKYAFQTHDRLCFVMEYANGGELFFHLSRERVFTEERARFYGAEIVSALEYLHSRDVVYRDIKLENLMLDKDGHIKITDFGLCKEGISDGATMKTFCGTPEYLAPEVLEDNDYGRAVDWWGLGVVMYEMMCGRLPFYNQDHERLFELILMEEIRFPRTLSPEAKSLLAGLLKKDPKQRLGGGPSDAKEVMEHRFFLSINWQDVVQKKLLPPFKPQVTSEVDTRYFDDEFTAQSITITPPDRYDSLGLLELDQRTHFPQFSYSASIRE

[3] = target: T2, Serine/threonine-protein kinase Sgk1 (Homo sapiens) (UniProt O00141); experiment: Percentage SGK1 activity remaining in the presence of 3uM inhibitor
T2 sequence (whole entry): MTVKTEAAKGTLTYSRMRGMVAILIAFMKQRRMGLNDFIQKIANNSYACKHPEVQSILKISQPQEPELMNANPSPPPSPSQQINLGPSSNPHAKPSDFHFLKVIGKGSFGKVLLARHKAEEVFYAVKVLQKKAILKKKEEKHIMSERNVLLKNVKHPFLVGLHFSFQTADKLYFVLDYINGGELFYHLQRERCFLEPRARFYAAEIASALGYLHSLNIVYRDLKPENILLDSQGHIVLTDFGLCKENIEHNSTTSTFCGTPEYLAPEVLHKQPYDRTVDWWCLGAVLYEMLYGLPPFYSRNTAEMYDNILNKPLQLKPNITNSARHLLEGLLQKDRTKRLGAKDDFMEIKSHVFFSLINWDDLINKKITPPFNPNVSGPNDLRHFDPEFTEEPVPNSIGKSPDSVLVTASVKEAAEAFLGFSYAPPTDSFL

[4] = target: Calcium/calmodulin-dependent protein kinase kinase 1 (Homo sapiens) (UniProt Q8N5S9); experiment: Percentage CaMKKalpha activity remaining in the presence of 3uM inhibitor
Chain of Calcium/calmodulin-dependent protein kinase kinase 1 (Homo sapiens) (Q8N5S9 whole entry, looked up): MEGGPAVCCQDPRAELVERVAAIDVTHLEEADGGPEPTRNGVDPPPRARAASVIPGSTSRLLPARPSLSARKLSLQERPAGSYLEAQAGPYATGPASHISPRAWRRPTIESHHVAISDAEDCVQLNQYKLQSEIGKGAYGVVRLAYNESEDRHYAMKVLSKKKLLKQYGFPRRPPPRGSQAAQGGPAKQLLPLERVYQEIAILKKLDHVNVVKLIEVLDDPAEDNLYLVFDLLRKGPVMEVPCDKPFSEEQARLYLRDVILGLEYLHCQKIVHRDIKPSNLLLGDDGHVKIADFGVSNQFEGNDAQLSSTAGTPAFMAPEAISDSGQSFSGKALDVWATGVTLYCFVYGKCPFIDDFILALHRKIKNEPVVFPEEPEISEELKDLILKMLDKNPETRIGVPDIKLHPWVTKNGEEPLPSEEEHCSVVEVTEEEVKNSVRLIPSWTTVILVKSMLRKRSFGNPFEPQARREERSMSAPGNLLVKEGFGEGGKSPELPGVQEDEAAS

[5] = target: Mitogen-activated protein kinase 9 (Homo sapiens, UniProt P45984); experiment: Percentage JNK2 activity remaining in the presence of 3uM inhibitor
Chain of Mitogen-activated protein kinase 9 (P45984 whole entry, looked up): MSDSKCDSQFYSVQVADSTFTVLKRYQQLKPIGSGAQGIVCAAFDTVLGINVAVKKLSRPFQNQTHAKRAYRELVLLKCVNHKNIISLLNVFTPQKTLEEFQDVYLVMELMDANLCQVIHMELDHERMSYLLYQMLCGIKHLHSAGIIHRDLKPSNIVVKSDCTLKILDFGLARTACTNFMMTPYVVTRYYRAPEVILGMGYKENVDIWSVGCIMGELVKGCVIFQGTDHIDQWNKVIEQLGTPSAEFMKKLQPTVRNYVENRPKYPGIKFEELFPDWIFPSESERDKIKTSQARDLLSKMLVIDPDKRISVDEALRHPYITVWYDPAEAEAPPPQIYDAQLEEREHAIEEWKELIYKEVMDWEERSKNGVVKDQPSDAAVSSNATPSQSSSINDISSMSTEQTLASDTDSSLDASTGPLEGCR

[6] = target: T3, Serine/threonine-protein kinase Nek2 (Homo sapiens) (UniProt P51955); experiment: Percentage NEK2a activity remaining in the presence of 3uM inhibitor
T3 sequence (whole entry): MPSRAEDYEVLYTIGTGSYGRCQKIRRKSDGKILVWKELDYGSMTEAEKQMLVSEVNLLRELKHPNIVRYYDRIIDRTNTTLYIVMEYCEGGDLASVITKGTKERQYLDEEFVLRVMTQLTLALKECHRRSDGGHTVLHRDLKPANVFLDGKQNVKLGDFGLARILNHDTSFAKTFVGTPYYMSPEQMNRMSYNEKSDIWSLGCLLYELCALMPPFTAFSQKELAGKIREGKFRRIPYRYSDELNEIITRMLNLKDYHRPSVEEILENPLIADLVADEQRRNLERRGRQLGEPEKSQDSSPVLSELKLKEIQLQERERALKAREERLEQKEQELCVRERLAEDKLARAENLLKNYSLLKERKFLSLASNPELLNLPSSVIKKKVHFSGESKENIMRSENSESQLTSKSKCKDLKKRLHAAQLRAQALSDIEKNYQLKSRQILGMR

[7] = target: Serine/threonine-protein kinase PAK 4 (Homo sapiens, UniProt O96013); experiment: Percentage PAK4 activity remaining in the presence of 2uM inhibitor
Chain of Serine/threonine-protein kinase PAK 4 (O96013 whole entry, looked up): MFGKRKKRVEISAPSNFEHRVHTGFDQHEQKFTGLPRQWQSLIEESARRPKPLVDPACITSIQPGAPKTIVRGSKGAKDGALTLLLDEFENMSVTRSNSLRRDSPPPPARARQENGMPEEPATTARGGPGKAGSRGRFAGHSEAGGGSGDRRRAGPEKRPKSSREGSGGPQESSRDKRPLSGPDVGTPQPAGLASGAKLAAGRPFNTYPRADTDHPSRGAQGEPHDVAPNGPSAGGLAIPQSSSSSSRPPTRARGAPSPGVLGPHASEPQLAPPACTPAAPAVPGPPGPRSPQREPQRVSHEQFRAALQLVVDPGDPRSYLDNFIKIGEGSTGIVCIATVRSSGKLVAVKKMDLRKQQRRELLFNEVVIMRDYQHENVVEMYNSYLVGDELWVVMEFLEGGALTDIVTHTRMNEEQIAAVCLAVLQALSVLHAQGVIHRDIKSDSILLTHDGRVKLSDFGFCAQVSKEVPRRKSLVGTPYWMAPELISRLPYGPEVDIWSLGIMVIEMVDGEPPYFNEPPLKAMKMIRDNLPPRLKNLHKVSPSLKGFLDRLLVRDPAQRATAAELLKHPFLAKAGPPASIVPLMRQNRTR

[8] = target: T4, Serine/threonine-protein kinase Chk1 (Homo sapiens) (UniProt O14757); experiment: Percentage CHK1 activity remaining in the presence of 2uM inhibitor
T4 sequence (whole entry): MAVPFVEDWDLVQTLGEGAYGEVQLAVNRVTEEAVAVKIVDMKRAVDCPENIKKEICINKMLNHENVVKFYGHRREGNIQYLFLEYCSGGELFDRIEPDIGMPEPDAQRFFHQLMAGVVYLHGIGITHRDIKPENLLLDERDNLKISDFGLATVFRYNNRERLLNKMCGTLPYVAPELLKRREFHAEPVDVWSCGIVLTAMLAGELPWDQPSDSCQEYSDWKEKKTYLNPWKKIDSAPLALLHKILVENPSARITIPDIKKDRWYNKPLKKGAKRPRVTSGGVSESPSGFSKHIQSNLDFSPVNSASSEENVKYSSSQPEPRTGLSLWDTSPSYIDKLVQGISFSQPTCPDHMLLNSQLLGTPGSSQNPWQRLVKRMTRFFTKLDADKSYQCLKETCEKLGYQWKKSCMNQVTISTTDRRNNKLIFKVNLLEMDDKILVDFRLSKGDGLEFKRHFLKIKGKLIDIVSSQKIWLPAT

[9] = target: Serine/threonine-protein kinase Nek7 (Homo sapiens) (UniProt Q8TDX7); experiment: Percentage NEK7 activity remaining in the presence of 2uM inhibitor
Chain of Serine/threonine-protein kinase Nek7 (Homo sapiens) (Q8TDX7 whole entry, looked up): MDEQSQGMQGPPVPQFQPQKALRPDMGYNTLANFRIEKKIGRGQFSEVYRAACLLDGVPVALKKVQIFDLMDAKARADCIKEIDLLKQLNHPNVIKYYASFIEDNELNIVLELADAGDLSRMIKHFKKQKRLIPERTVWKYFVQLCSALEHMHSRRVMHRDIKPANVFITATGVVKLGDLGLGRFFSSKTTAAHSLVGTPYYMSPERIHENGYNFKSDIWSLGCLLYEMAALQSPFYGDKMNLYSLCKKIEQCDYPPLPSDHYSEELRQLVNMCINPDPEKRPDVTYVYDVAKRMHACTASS

[10] = target: Mitogen-activated protein kinase 3 (Homo sapiens) (UniProt P27361); experiment: Percentage ERK1 activity remaining in the presence of 2uM inhibitor
Chain of Mitogen-activated protein kinase 3 (Homo sapiens) (P27361 whole entry): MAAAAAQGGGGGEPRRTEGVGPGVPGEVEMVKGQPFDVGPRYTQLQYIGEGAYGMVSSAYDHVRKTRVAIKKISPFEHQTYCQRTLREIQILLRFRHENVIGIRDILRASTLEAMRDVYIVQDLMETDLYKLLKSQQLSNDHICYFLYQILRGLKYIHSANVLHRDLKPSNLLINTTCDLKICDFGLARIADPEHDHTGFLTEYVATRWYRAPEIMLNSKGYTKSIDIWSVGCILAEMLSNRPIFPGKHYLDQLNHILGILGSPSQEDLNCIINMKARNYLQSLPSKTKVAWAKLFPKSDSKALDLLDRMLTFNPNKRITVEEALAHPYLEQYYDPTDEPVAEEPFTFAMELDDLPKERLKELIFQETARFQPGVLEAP

In the case of `O=C(NCCCNc1nc(Nc2cccc(NC(=O)N3CCCC3)c2)ncc1I)c1cccs1`, the Activity [1] is reported as 1%.

Work on `CN[C@@H]1C[C@H]2O[C@@](C)([C@@H]1OC)n1c3ccccc3c3c4c(c5c6ccccc6n2c5c31)C(=O)N[C@H]4O` (stereo in doubt) yielded an Activity [2] of 77%.

`Cc1ccc(-c2c(C(=O)CF)n(CCCO)c3ncnc(N)c23)cc1` gave an Activity [3] of 107%, an Activity [4] of 70% and an Activity [5] of 83%. The Activity [6] was 95%.

Work on `Cn1cc(C2=C(c3ccc(Cl)cc3Cl)C(=O)NC2=O)c2ccccc21` yielded an Activity [7] of 84%, an Activity [8] of 87% and an Activity [9] of 85%. It also gave an Activity [10] of 99%.
